Measured values as given in patent publication US12410160B2 (Gilead Sciences, Inc., priority 2021, dated 2025).

Key:
human KHK-C = human KHK-C (Homo sapiens (Human), UniProt P50053); experiment: KHK Biochemical Assay (IC50), ADP-Glo, KHK-C; settings: ADP-Glo; average of at least two separate assays
How it was run: (§1)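 His-tagged enzyme expressed in BL21 (DE3), Ni-NTA purified. Compounds, serially diluted 1:3 in DMSO, pre-incubated 30 min with enzyme in 50 mM Hepes pH 7.4, 140 mM KCl, 5 mM MgCl2, 0.01% Triton-X, then ATP and fructose added; 4 h at room temperature. ADP formation read by ADP-Glo luminescence.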

[1] = target: KHK-C expressed in NRK-52E cells (Homo sapiens (Human), UniProt P50053); experiment: KHK-C Cell-based Assay (EC50), NRK CTG, fructose-mediated ATP-depletion
human KHK-A = human KHK-A (Homo sapiens (Human), UniProt P50053); experiment: KHK Biochemical Assay (IC50), ADP-Glo, KHK-A; settings: ADP-Glo; average of at least two separate assays
How it was run: as §1

Chain of human KHK-C (P50053 whole entry): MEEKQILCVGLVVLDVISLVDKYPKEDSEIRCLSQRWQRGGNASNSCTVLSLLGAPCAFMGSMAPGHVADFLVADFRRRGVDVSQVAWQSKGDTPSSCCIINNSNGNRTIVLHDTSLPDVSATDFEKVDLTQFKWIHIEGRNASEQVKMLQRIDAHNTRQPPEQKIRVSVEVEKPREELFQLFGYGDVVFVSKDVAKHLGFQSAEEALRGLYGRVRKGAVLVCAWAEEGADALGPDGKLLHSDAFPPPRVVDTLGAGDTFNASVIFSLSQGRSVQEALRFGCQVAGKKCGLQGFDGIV
Chain of KHK-C expressed in NRK-52E cells (P50053 whole entry): as above
Chain of human KHK-A (P50053 other isoform, or with tags, fused parts or gaps): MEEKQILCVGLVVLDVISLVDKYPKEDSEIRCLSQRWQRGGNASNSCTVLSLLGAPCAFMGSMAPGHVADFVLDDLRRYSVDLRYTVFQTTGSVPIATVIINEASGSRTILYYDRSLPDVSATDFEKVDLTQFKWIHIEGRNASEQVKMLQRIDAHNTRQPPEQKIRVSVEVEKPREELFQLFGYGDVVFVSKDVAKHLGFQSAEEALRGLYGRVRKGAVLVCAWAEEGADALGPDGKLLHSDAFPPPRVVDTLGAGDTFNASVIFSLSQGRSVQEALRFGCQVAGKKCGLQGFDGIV

Row | SMILES | IC50 (human KHK-C) | EC50 [1] | IC50 (human KHK-A)
1 | C[C@H]1CCN1c1nc2c(c(-c3cccc(C(=O)NCCC(N)=O)c3)n1)CCC2 [Example 220, N-(3-amino-3-oxo-propyl)-3-[2-[(2S)-2-methylazetidin-1-yl]-6,7-dihydro-5H-cyclopenta[d]pyrimidin-4-yl]benzamide] | 57.3 nM | 190 nM | 58.6 nM
2 | C[C@H]1CCN1c1nc2c(c(-c3cnc(CN)s3)n1)CCC2 [Example 221, (S)-(5-(2-(2-methylazetidin-1-yl)-6,7-dihydro-5H-cyclopenta[d]pyrimidin-4-yl)thiazol-2-yl)methanamine] | 17.2 nM | 94.4 nM | 17.8 nM
3 | C[C@H]1[C@@H](F)CN1c1nc2c(c(-c3ccc(C(N)=O)cc3)n1)CCC2 [Example 226] | 17.2 nM | 26.9 nM | 25.5 nM
4 | C[C@H]1CCN1c1nc2c(c(-c3cccc(CNC(=O)CCO)c3)n1)CCC2 [Example 227, 3-hydroxy-N-[[3-[2-[(2S)-2-methylazetidin-1-yl]-6,7-dihydro-5H-cyclopenta[d]pyrimidin-4-yl]phenyl]methyl]propanamide] | 70.3 nM | 265 nM | 75.6 nM
5 | C[C@H]1CCN1c1nc2c(c(-c3cccc(CNC(=O)CO)c3)n1)CCC2 [Example 231, 2-hydroxy-N-[[3-[2-[(2S)-2-methylazetidin-1-yl]-6,7-dihydro-5H-cyclopenta[d]pyrimidin-4-yl]phenyl]methyl]acetamide] | 50.6 nM | 199 nM | 56.7 nM
6 | C[C@H]1CCN1c1nc2c(c(-c3ccc4ccc(C(=O)O)cc4c3)n1)CCC2 [Example 232, 7-[2-[(2S)-2-methylazetidin-1-yl]-6,7-dihydro-5H-cyclopenta[d]pyrimidin-4-yl]naphthalene-2-carboxylic acid] | 44.8 nM | 1630 nM | 46.1 nM
7 | C[C@H]1CCN1c1nc2c(c(-c3ccc4c(c3)S(=O)(=O)CNC4=O)n1)CCC2 [Example 234, 7-[2-[(2S)-2-methylazetidin-1-yl]-6,7-dihydro-5H-cyclopenta[d]pyrimidin-4-yl]-1,1-dioxo-2,3-dihydro-1lambda6,3-benzothiazin-4-one] | 18.9 nM | 56.4 nM | 39.1 nM
8 | CO[C@@H]1CN(c2nc3c(c(-c4ccc(C(N)=O)cc4)n2)CCC3)[C@H]1C [Example 235, 4-(2-((2S,3R)-3-methoxy-2-methylazetidin-1-yl)-6,7-dihydro-5H-cyclopenta[d]pyrimidin-4-yl)benzamide] | > 5000 nM | > 5000 nM | > 5000 nM
9 | C[C@H]1CCN1c1nc2c(c(-c3ccc4c(c3)C(=O)NC4=O)n1)CCC2 [Example 240, 5-[2-[(2S)-2-methylazetidin-1-yl]-6,7-dihydro-5H-cyclopenta[d]pyrimidin-4-yl]isoindoline-1,3-dione] | 173 nM | 4980 nM | 183 nM
10 | C[C@H]1CCN1c1nc2c(c(-c3cccc(CC(N)=O)c3)n1)CCC2 [Example 244, 2-[3-[2-[(2S)-2-methylazetidin-1-yl]-6,7-dihydro-5H-cyclopenta[d]pyrimidin-4-yl]phenyl]acetamide] | 67.8 nM | 102 nM | 149 nM
11 | C[C@H]1CCN1c1nc2c(c(-c3ccc(CC(N)=O)cc3)n1)CCC2 [Example 245, 2-[4-[2-[(2S)-2-methylazetidin-1-yl]-6,7-dihydro-5H-cyclopenta[d]pyrimidin-4-yl]phenyl]acetamide] | 80.3 nM | 374 nM | 73.6 nM
12 | C[C@H]1CCN1c1nc2c(c(-c3cccc(C(N)C(F)(F)F)c3)n1)CCC2 (stereo partly drawn) [Example 246, 2,2,2-trifluoro-1-[3-[2-[(2S)-2-methylazetidin-1-yl]-6,7-dihydro-5H-cyclopenta[d]pyrimidin-4-yl]phenyl]ethanamine] | 163 nM | 422 nM | 360 nM
13 | C[C@H]1CCN1c1nc2c(c(-c3ccc4[nH]c(=O)[nH]c4c3)n1)CCC2 [Example 247, 5-[2-[(2S)-2-methylazetidin-1-yl]-6,7-dihydro-5H-cyclopenta[d]pyrimidin-4-yl]-1,3-dihydrobenzimidazol-2-one] | 49.6 nM | 107 nM | 50 nM
14 | C[C@H]1CCN1c1nc2c(c(-c3ccc4c(c3)CC(=O)N4)n1)CCC2 [Example 248, 5-[2-[(2S)-2-methylazetidin-1-yl]-6,7-dihydro-5H-cyclopenta[d]pyrimidin-4-yl]indolin-2-one] | > 100 nM | 154 nM | 79.6 nM
15 | C[C@H]1CCN1c1nc2c(c(-c3ccc(C45CC(C(=O)O)(C4)C5)cc3)n1)CCC2 [Example 249, 3-[4-[2-[(2S)-2-methylazetidin-1-yl]-6,7-dihydro-5H-cyclopenta[d]pyrimidin-4-yl]phenyl]bicyclo[1.1.1]pentane-1-carboxylic acid] | 96.3 nM | 517 nM | 105 nM
16 | C[C@H]1CCN1c1nc2c(c(-c3ccc(C45CC(C(N)=O)(C4)C5)cc3)n1)CCC2 [Example 250, 3-[4-[2-[(2S)-2-methylazetidin-1-yl]-6,7-dihydro-5H-cyclopenta[d]pyrimidin-4-yl]phenyl]bicyclo[1.1.1]pentane-1-carboxamide] | 129 nM | 852 nM | 196 nM
17 | C[C@H]1CCN1c1nc2c(c(-c3ccc4[nH]c(=O)n(C)c4c3)n1)CCC2 [Example 251, 3-methyl-5-[2-[(2S)-2-methylazetidin-1-yl]-6,7-dihydro-5H-cyclopenta[d]pyrimidin-4-yl]-1H-benzimidazol-2-one] | 135 nM | 243 nM | 126 nM
18 | C[C@H]1CCN1c1nc2c(c(-c3ccc(C4(C(N)=O)CC4)cc3)n1)CCC2 [Example 252, 1-[4-[2-[(2S)-2-methylazetidin-1-yl]-6,7-dihydro-5H-cyclopenta[d]pyrimidin-4-yl]phenyl]cyclopropanecarboxamide] | 946 nM | 1670 nM | 783 nM
19 | C[C@H]1CCN1c1nc2c(c(-c3cccc(C4(C(=O)O)CC4)c3)n1)CCC2 [Example 253, 1-[3-[2-[(2S)-2-methylazetidin-1-yl]-6,7-dihydro-5H-cyclopenta[d]pyrimidin-4-yl]phenyl]cyclopropanecarboxylic acid] | 239 nM | 2770 nM | 204 nM
20 | C[C@H]1CCN1c1nc2c(c(-c3cccc(C4(C(N)=O)CC4)c3)n1)CCC2 [Example 254, 1-[3-[2-[(2S)-2-methylazetidin-1-yl]-6,7-dihydro-5H-cyclopenta[d]pyrimidin-4-yl]phenyl]cyclopropanecarboxamide] | 517 nM | 607 nM | 600 nM
21 | C[C@H]1CCN1c1nc2c(c(-c3ccc(C(O)C4(C#N)CC4)cc3)n1)CCC2 (stereo partly drawn) [Example 255, 1-[hydroxy-[4-[2-[(2S)-2-methylazetidin-1-yl]-6,7-dihydro-5H-cyclopenta[d]pyrimidin-4-yl]phenyl]methyl]cyclopropanecarbonitrile] | 65.9 nM | 70.7 nM | 49.8 nM
22 | C[C@H]1CCN1c1nc2c(c(-c3ccc(C(O)C(F)F)cc3)n1)CCC2 (stereo partly drawn) [Example 256, 2,2-difluoro-1-[4-[2-[(2S)-2-methylazetidin-1-yl]-6,7-dihydro-5H-cyclopenta[d]pyrimidin-4-yl]phenyl]ethanol] | 262 nM | 161 nM | 519 nM
23 | C[C@H]1CCN1c1nc2c(c(-c3ccc(C(O)CF)cc3)n1)CCC2 (stereo partly drawn) [Example 257, 2-fluoro-1-[4-[2-[(2S)-2-methylazetidin-1-yl]-6,7-dihydro-5H-cyclopenta[d]pyrimidin-4-yl]phenyl]ethanol] | 128 nM | 185 nM | 201 nM
24 | C[C@H]1CCN1c1nc2c(c(-c3cccc(OC(F)F)c3)n1)CCC2 [Example 258, 4-[3-(difluoromethoxy)phenyl]-2-[(2S)-2-methylazetidin-1-yl]-6,7-dihydro-5H-cyclopenta[d]pyrimidine] | 2850 nM | 525 nM | 2000 nM
25 | C[C@H]1CCN1c1nc2c(c(-c3cnc4c(c3)NCCO4)n1)CCC2 [Example 263, 7-[2-[(2S)-2-methylazetidin-1-yl]-6,7-dihydro-5H-cyclopenta[d]pyrimidin-4-yl]-2,3-dihydro-1H-pyrido[2,3-b][1,4]oxazine] | 50 nM | 155 nM | 96.2 nM
26 | C[C@]1(O)CCN(c2nc3c(c(-c4ccc(C(N)=O)cc4)n2)CCC3)C1 [Example 268, 4-[2-[(38)-3-hydroxy-3-methyl-pyrrolidin-1-yl]-6,7-dihydro-5H-cyclopenta[d]pyrimidin-4-yl]benzamide] | > 5000 nM | > 5000 nM | > 5000 nM
27 | C[C@H]1CCN1c1nc(-c2cccc(C(N)=O)c2)c2c(cnn2C)n1 [Example 271, (S)-3-(1-methyl-5-(2-methylazetidin-1-yl)-1H-pyrazolo[4,3-d]pyrimidin-7-yl)benzamide] | 532 nM | 2320 nM | 518 nM
28 | C[C@H]1CCN1c1nc2c(c(-c3ccc4c(c3)CCO4)n1)CCC2 [Example 274, (S)-4-(2,3-dihydrobenzofuran-5-yl)-2-(2-methylazetidin-1-yl)-6,7-dihydro-5H-cyclopenta[d]pyrimidine] | 142 nM | 205 nM | 204 nM
29 | C[C@H]1CCN1c1nc2c(c(-c3ccc4c(ccn4C)c3)n1)CCC2 [Example 275, (S)-4-(1-methyl-1H-indol-5-yl)-2-(2-methylazetidin-1-yl)-6,7-dihydro-5H-cyclopenta[d]pyrimidine] | 618 nM | 291 nM | 1040 nM
